Biological target: T1, Thioredoxin domain-containing protein 12 (TXNDC12) (Homo sapiens, UniProt O95881)
T1 construct: endogenous in cells; host or cells: MCF7
Assay: SILAC competitive profiling with probe 24c in MCF7 lysates: TXNDC12
Format: binding
Settings: 1 h, then 10 µM 24c
Source text: In our efforts to determine the direct molecular targets of deoxyelephantopin we first performed a gel-based competitive in situ proteomic profiling assay[41] […] While the greater conformational flexibility of probe 24c could potentially lead to more promiscuous target engagement relatively to deoxyelephantopin, it was favoured based on the fact that an alkyne moiety appended to the rigid scaffold of deoxyelephantopin may hinder some of its interactions. MCF7 cells were pretreated with various concentrations of deoxyelephantopin for 4 h, harvested, lysed and the lysates were treated with the fluorogenic probe 24c-Cy3 (10 μM; Supplementary Fig. 10). […] Furthermore, cells were pretreated with 20 μM concentration of deoxyelephantopin or 24c and the proteomic profiles were compared (Fig. 6b, Supplementary Fig. 11). Multiple bands were detected that were equally competed by both DEP and 24c, thus again confirming that 24c can be used as an acceptable clickable analogue of deoxyelephantopin in pulldown assays. Having established the optimal labelling conditions by SDS–PAGE, we next carried out a mass spectrometry-based competitive profiling assay[42] coupled with the method of stable isotope labelling of amino acids in culture (SILAC)[43]. […]
visualization were performed as described above. Images were quantified with ImageJ and kinetics values were calculated using GraphPad Prism (V6.03). […]

T1 sequence (O95881 27-172): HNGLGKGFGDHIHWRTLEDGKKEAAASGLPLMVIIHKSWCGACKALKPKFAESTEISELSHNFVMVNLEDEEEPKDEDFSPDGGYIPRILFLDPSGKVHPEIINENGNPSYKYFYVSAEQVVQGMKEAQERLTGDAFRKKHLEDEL

SMILES: C=C(C)C(=O)O[C@H]1CC2=C[C@@H](C/C(C)=C/[C@H]3OC(=O)C(=C)[C@H]13)OC2=O [deoxyelephantopin]
- SILAC ratio 20 µM Deoxyelephantopin/DMSO with 24c: 0.12
